Measurements taken from the CATMoS acute toxicity set (Mansouri et al. 2021).

experiment: GHS categories as the set defines them, by LD50: 1 up to 5, 2 up to 50, 3 up to 300, 4 up to 2000, 5 above 2000 mg/kg; conditions: rat; in vivo; po

| Compound | GHS category |
| --- | --- |
| CC1CC(OC(=O)C(Oc2ccc(Cl)cc2)C(C)C)CC(C)(C)C1 (stereo not drawn) | 5 |
| Nc1nc2c(ncn2COCCO)c(=O)[nH]1 | 5 |
| CC(CCc1ccccc1)NC(C)C(O)c1ccc(O)cc1 (stereo not drawn) | 5 |
| CN1CC(c2ccn(C)n2)CC2c3cccc4[nH]cc(c34)CC21 (stereo not drawn) | 4 |
| COc1cc(OC)nc(NC(=O)NS(=O)(=O)Nc2ccccc2C(=O)N(C)C)n1 | 5 |
| O=C(O)CN1C(=O)c2cccc3cccc(c23)C1=O | 5 |
| CCOC(=O)C(=O)Nc1cc(SCCOC)nc(C)n1 | 4 |
| CNCc1ccc(CSCCN/C(=N/S(C)(=O)=O)NCC(O)c2ccc(O)cc2)o1 (stereo not drawn) | 5 |
| C=CC(=O)OCC[N+](C)(C)Cc1ccccc1 | 5 |
| CCC(=O)OC(C)(C)Cc1ccccc1 | 5 |
| O=S(=O)(O)c1ccc(Cl)cc1 | 4 |
| Clc1cccc(Cl)c1Nc1ccccc1 | 5 |
| COC(=O)c1ccc(C#N)cc1[N+](=O)[O-] | 5 |
| COc1ccc(C2(O)c3ccccc3C3=NCCN32)cc1 (stereo not drawn) | 4 |
| COP(=S)(OC)N(C)C(=O)Oc1cccc2c1OC(C)(C)C2 | 3 |
| CC(SC(=O)c1cccs1)C(=O)NC1CCSC1=O (stereo not drawn) | 5 |
| CCCCCCCCCCOCCN1CCCC1=O | 5 |
| Oc1ccc2c(c1)CCN(c1ccccc1)C2c1ccc(F)cc1 (stereo not drawn) | 4 |
| CCCCCCCC/C=C\CCCCCCCC(=O)OCC(C)(C)COC(=O)CCCCCCC/C=C\CCCCCCCC | 5 |
| C=CCCCCCCCC(=O)OC | 5 |

| Compound | GHS category |
| --- | --- |
| O=C(O)C(=O)C(O)C(O)C(O)CO (stereo not drawn) | 5 |
| O=C(CCl)Nc1nc2cc(Cl)ccc2o1 | 4 |
| CS(C)(=O)=O | 5 |
| O=C(NC(=O)c1c(F)cccc1F)Nc1cc(Cl)c(OC(F)(F)C(F)F)c(Cl)c1 | 5 |
| CC1=CC1 | 5 |
| CC1CC(OC(=O)C(C)(C)Oc2cccc(C(F)(F)F)c2)CC(C)(C)C1 (stereo not drawn) | 5 |
| CCCCCCCC(=O)OOC(C)(C)C | 5 |
| Cc1ccc(I)cc1Cc1ccc(-c2ccc(F)cc2)s1 | 5 |
| CC(=O)Nc1cc2cccnc2c(N2CCN(CCO)CC2)n1 | 5 |
| Cc1cc(C(C)(C)C)c(O)c(C)c1CC#N | 5 |
| Clc1ccc(Oc2cccc(Cl)c2)cc1 | 5 |
| CC(C)C(=O)OOC(C)(C)C | 5 |
| O=C(O)c1ccc(OCCn2ccnc2)cc1 | 4 |
| CC(=O)c1ccc2c(c1)oc(=O)n2C | 5 |
| CC(C)=CCCC(C)=C1CC=C(C)CC1 | 5 |
| CCC(C)C(C#N)(CCN(CC=C(C)C)CC=C(C)C)c1cccc2ccccc12 (stereo not drawn) | 4 |
| CNS(=O)(=O)c1ccccc1-c1nnc(N)s1 | 5 |
| COC(=O)c1ccc(C(=O)OC)c(N)c1 | 5 |
| FC(F)(F)OC(Cl)C(F)(Cl)Cl (stereo not drawn) | 5 |
| CC(=O)Nc1ccc(OC(=O)c2cccs2)cc1 | 5 |

| Compound | GHS category |
| --- | --- |
| Clc1ccc(C(Cn2ccnc2)OCc2ccc(Sc3ccccc3)cc2)c(Cl)c1 (stereo not drawn) | 5 |
| CCCCCCCCCCCCCCCC(=O)OCCCCCCCCCCCCCCCC(C)C | 5 |
| CCCCCCCCCCSCCN1CCCC1=O | 5 |
| CCN1C(=O)CCc2c(OCC(O)CN3CCC(Cc4ccccc4)CC3)cccc21 (stereo not drawn) | 4 |
| CCC1(C2=CCCCCC2)C(=O)NC(=O)NC1=O | 5 |
| CC(c1ccc2c(c1)Cc1ccccc1-2)S(=O)CC(=O)O (stereo not drawn) | 4 |
| CCCc1nc2ccnn2c(NCCN2CCCC2)c1Cc1ccc(-c2ccccc2-c2nn[nH]n2)cc1 | 4 |
| CC(C)(C)C1CCC(CC2=C(O)C(=O)c3ccccc3C2=O)CC1 (stereo not drawn) | 5 |
| CC1CC(OC(=O)C(C)Oc2ccccc2Cl)CC(C)(C)C1 (stereo not drawn) | 5 |
| CNc1ccc([N+](=O)[O-])cc1 | 5 |
| CCCCCCCCCCCCCCCCCC(=O)NP(=O)(OC)SC (stereo not drawn) | 3 |
| NNC(=O)CCCCC(=O)NN | 5 |
| COC(=O)C(CCn1cnc2c(Cl)nc(N)nc21)C(=O)OC | 5 |
| CC(=O)Nc1ccc(S(=O)(=O)O)c2cc(S(=O)(=O)O)c(/N=N/c3ccc(/N=N/c4ccc(S(=O)(=O)O)cc4)c4ccc(S(=O)(=O)O)cc34)c(O)c12 | 5 |
| CC(C)=CCC/C(C)=C/CC/C(C)=C/CCC(=O)OC/C=C(\C)CCC=C(C)C | 5 |
| FC(F)CNCc1ccc(Cl)nc1 | 5 |
| CC(C)(C)[C@H](NC(=O)OCc1ccccc1)C(=O)O | 4 |
| O=C1CCc2ccc(OCC(O)CN3CCC(c4ccccc4)CC3)cc2N1 (stereo not drawn) | 4 |
